# Test results from patent publication US9334289B2, “Cephem compound having catechol or pseudo-catechol structure” (SHIONOGI & CO., LTD., priority 2011, dated 2016).
# How the values were obtained:
# Assay in all cases: MIC, CLSI broth microdilution, Test Example 1
# Type in all cases: cell-based
# [1] = test system: K. pneumoniae ATCCBAA-1705; details: KPC-2 carbapenemase producing strain, cation-adjusted Mueller Hinton broth containing human apo-transferrin, 5×10^5 cfu/mL; for MIC: Klebsiella pneumoniae, ATCCBAA1705, read-out: Minimum Inhibitory Concentration (MIC) K. pneumoniae ATCCBAA-1705
# Procedure: (§1) Measurement of Minimum Inhibitory Concentration (MIC: μg/mL) was conducted according to CLSI (Clinical and Laboratory Standards Institute) method, and the amount of bacteria for inoculation was 5×10^5 cfu/mL, and cation-adjusted Mueller Hinton broth containing human apo-transferrin was used as a test medium, and the experiment was conducted using broth microdilution method. The bacteria used are listed below.
# [2] = test system: E. coli ATCCBAA-199; details: SHV-3 ESBL producing strain, cation-adjusted Mueller Hinton broth containing human apo-transferrin, 5×10^5 cfu/mL; for MIC: Escherichia coli, ATCCBAA199, read-out: Minimum Inhibitory Concentration (MIC) E. coli ATCC BAA-199
# Procedure: as §1
# [3] = test system: A. baumannii SR27323; details: OXA-23, OXA-58 carbapenemase producing strain, cation-adjusted Mueller Hinton broth containing human apo-transferrin, 5×10^5 cfu/mL; for MIC: Acinetobacter baumannii, SR27323, read-out: Minimum Inhibitory Concentration (MIC) A. baumannii SR27323
# Procedure: as §1
# [4] = test system: E. coli ATCCBAA-200; details: SHV-4 ESBL producing strain, cation-adjusted Mueller Hinton broth containing human apo-transferrin, 5×10^5 cfu/mL; for MIC: Escherichia coli, ATCCBAA200, read-out: Minimum Inhibitory Concentration (MIC) E. coli ATCC BAA-200
# Procedure: as §1
# [5] = test system: P. aeruginosa SR24837; details: PER-1 ESBL producing strain, cation-adjusted Mueller Hinton broth containing human apo-transferrin, 5×10^5 cfu/mL; for MIC: Pseudomonas aeruginosa, SR24837, read-out: Minimum Inhibitory Concentration (MIC) P. aeruginosa SR24837
# Procedure: as §1
# [6] = test system: P. aeruginosa SR27060; details: IMP-1 MBL producing strain (carbapenem resistance strain), cation-adjusted Mueller Hinton broth containing human apo-transferrin, 5×10^5 cfu/mL; for MIC: Pseudomonas aeruginosa, SR27060, read-out: Minimum Inhibitory Concentration (MIC) P. aeruginosa SR27060
# Procedure: as §1
# [7] = test system: P. aeruginosa SR24; details: Ceftazidime resistance strain, cation-adjusted Mueller Hinton broth containing human apo-transferrin, 5×10^5 cfu/mL; for MIC: Pseudomonas aeruginosa, SR24, read-out: Minimum Inhibitory Concentration (MIC) P. aeruginosa SR24
SMILES,MIC [1],MIC [2],MIC [3],MIC [4],MIC [5],MIC [6],MIC [7],Minimum Inhibitory Concentration (MIC) K. pneumoniae ATCCBAA-1705 [1],Minimum Inhibitory Concentration (MIC) E. coli ATCC BAA-199 [2],Minimum Inhibitory Concentration (MIC) A. baumannii SR27323 [3],Minimum Inhibitory Concentration (MIC) E. coli ATCC BAA-200 [4],Minimum Inhibitory Concentration (MIC) P. aeruginosa SR24837 [5],Minimum Inhibitory Concentration (MIC) P. aeruginosa SR27060 [6],Minimum Inhibitory Concentration (MIC) P. aeruginosa SR24 [7]
CC(C)(O/N=C(\C(=O)N[C@@H]1C(=O)N2C(c3nnn[n-]3)=C(C[N+]3(C)[C@@H]4CC[C@H]3C[C@@H](NC(=O)c3cc(O)c(O)c(F)c3)C4)CS[C@H]12)c1csc(N)n1)C(=O)[O-].[Na+] (stereo partly shown) [Compound I-6],≤ 0.031 µg/mL,0.25 µg/mL,2 µg/mL,0.5 µg/mL,1 µg/mL,0.5 µg/mL,0.25 µg/mL,,,,,,,
C[N+](C)(CCNC(=O)c1ccc(O)c(O)c1Cl)CC1=C(c2nnn[n-]2)N2C(=O)C(NC(=O)C(=NOC(CC(=O)[O-])C(=O)[O-])c3csc(N)n3)C2SC1.[Na+].[Na+] (stereo not shown) [Compound I-92],,,,,,,,≦0.031 μg/ml,0.063 µg/mL,0.5 µg/mL,0.125 µg/mL,0.25 µg/mL,2 µg/mL,0.25 µg/mL
CC(C)(O/N=C(\C(=O)N[C@@H]1C(=O)N2C(c3nnn[n-]3)=C(C[N+]3(CCNC(=O)c4ccc(O)c(O)c4F)CCCC3)CS[C@H]12)c1csc(N)n1)C(=O)[O-].[Na+] [Compound I-54],≤ 0.031 µg/mL,0.25 µg/mL,1 µg/mL,0.5 µg/mL,0.25 µg/mL,0.25 µg/mL,≤ 0.031 µg/mL,,,,,,,
CC(C)(O/N=C(\C(=O)N[C@@H]1C(=O)N2C(c3nnn[n-]3)=C(C[N+]34CCC(CNC(=O)c5cc(=O)c(O)c[nH]5)(CC3)CC4)CS[C@H]12)c1csc(N)n1)C(=O)[O-].[Na+] [Compound I-9],0.063 µg/mL,0.25 µg/mL,1 µg/mL,0.5 µg/mL,2 µg/mL,4 µg/mL,0.25 µg/mL,,,,,,,
CC(C)(O/N=C(\C(=O)N[C@@H]1C(=O)N2C(c3nnn[n-]3)=C(C[N+]3(CCNC(=O)c4cc(O)c(O)cc4F)CCCC3)CS[C@H]12)c1csc(N)n1)C(=O)[O-].[Na+] [Compound I-55],≤ 0.031 µg/mL,0.25 µg/mL,2 µg/mL,1 µg/mL,0.5 µg/mL,1 µg/mL,0.25 µg/mL,,,,,,,
CC(C)(O/N=C(\C(=O)N[C@@H]1C(=O)N2C(c3nnn[nH]3)=C(C[n+]3cccc4c(NC(=O)c5ccc(O)c(O)c5Cl)cccc43)CS[C@H]12)c1csc(N)n1)C(=O)[O-] [Compound I-76],≤ 0.031 µg/mL,0.25 µg/mL,0.5 µg/mL,0.5 µg/mL,0.125 µg/mL,0.5 µg/mL,0.125 µg/mL,,,,,,,
CC(C)(O/N=C(\C(=O)N[C@@H]1C(=O)N2C(c3nnn[n-]3)=C(C[N+]34CCC(CNC(=O)c5ccc(O)c(O)c5Cl)(CC3)CC4)CS[C@H]12)c1csc(N)n1)C(=O)[O-].[Na+] [Compound I-10],≤ 0.031 µg/mL,0.5 µg/mL,0.5 µg/mL,1 µg/mL,2 µg/mL,2 µg/mL,0.25 µg/mL,,,,,,,
CC(C)(O/N=C(\C(=O)N[C@@H]1C(=O)N2C(c3nnn[nH]3)=C(C[n+]3ccc(NC(=O)c4ccc(O)c(O)c4Cl)c4ccccc43)CS[C@H]12)c1csc(N)n1)C(=O)[O-] [Compound I-78],≤ 0.031 µg/mL,0.25 µg/mL,0.25 µg/mL,0.5 µg/mL,0.125 µg/mL,0.25 µg/mL,0.125 µg/mL,,,,,,,
Nc1nc(/C(=N/O[C@@H](CC(=O)[O-])C(=O)[O-])C(=O)N[C@@H]2C(=O)N3C(c4nnn[n-]4)=C(C[N+]45CCC[C@H]4CN(C(=O)c4cc(O)c(O)c(Cl)c4)CC5)CS[C@H]23)cs1.[Na+].[Na+] (stereo partly shown) [Compound I-4],≤ 0.031 µg/mL,0.125 µg/mL,0.5 µg/mL,0.5 µg/mL,4 µg/mL,0.5 µg/mL,0.5 µg/mL,,,,,,,
CC(C)(O/N=C(\C(=O)N[C@@H]1C(=O)N2C(c3nnn[n-]3)=C(C[N+]3(CCNC(=O)c4cc(O)c(O)cc4Cl)CCCC3)CS[C@H]12)c1csc(N)n1)C(=O)[O-].[Na+] [Compound I-50],≤ 0.031 µg/mL,0.25 µg/mL,1 µg/mL,0.5 µg/mL,2 µg/mL,1 µg/mL,0.25 µg/mL,,,,,,,
